Experiments:
[1] = target: T1, SOD1 (A549 cells) (Homo sapiens, UniProt P00441); test: CETSA, western blot; format: biochemical; conditions: 10 μM DIPY, 30 min; A549 cells pretreated with RSL3 5 μM for 8 h; 45-72 °C
T1 construct: endogenous full-length SOD1 in A549 cells, read by western blot

[2] = target: T2, human SOD1 protein (#HY-P71048, MCE) (Homo sapiens, UniProt P00441); test: SPR (Biacore T200, CM5 chip, SOD1 immobilised); format: binding
T2 construct: commercial human SOD1 protein (MCE); amine-coupled to CM5 chip
T2 sequence (P00441 2-154, one chain of several): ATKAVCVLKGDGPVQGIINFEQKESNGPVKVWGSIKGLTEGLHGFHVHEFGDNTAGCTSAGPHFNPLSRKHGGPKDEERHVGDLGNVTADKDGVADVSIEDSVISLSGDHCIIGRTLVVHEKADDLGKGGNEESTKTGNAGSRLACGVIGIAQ

T1 sequence (P00441 2-154): as the sequence (P00441 2-154, one chain of several) above

Question: OCCN(CCO)c1nc(N2CCCCC2)c2nc(N(CCO)CCO)nc(N3CCCCC3)c2n1 [Dipyridamole] was tested. Which “thermal stability (CETSA)” value [1] did it give?
Answer: DIPY elevated the thermal stability of SOD1 compared with the control group

Question: What about the Kd [2] of the same molecule?
Answer: 8.83 µM

Reference: article PMC11610143, “Characterization of dipyridamole as a novel ferroptosis inhibitor and its therapeutic potential in acute respiratory distress syndrome management” (Theranostics, 2024)
